# ChEMBL document CHEMBL1151618, “Neoisostegane, a new bisbenzocyclooctadiene lignan lactone from Steganotaenia araliacea” (1984)
# Test system: KB
# Assay: Cytotoxicity against human KB cells
# Type: functional
# Details: read-out: ED50 (the source's name)
smiles,measurement,value
COc1cc2c(cc1OC)-c1cc(OC)c(OC)c(OC)c1C[C@H]1C(=O)OC[C@@H]1C2 [NEOISOSTEGANE],EC50,6.6 µg/mL
